Measurements taken from patent US12173088B2, “Anti-microbial peptides” (priority 2018, dated 2024).
≈ marks a conversion by molar mass, not a printed value. Peptide text beside a SMILES is read from it.

How the values were obtained:
E. coli ATCC 25922 = assay type: cell-based, Escherichia coli; settings: ATCC 25922
How it was run: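 Peptides, serially diluted two-fold, were incubated overnight at 37 °C with E. coli ATCC 25922 from log-phase cultures adjusted to OD600 0.001. Turbidity at 630 nm served as the read-out in this broth microdilution format.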

Hemolytic assay = assay type: cell-based, human; settings: human, human red blood cells, 2% (v/v)
How it was run: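 HL50 marks the peptide level lysing half of a 2% (v/v) suspension of washed human erythrocytes after 1 h at 37 °C. Released hemoglobin measured at 545 nm, scaled between PBS (0%) and Triton X-100 (2% or 1%; 100%). Selectivity index computed as HL50 over MIC.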

S. aureus USA300 = test: microbe, parasite or virus in culture; assay type: cell-based, Staphylococcus aureus
How it was run: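 Broth microdilution: log-phase cultures in tryptic soy broth diluted to OD600 0.001, exposed to two-fold diluted peptides at 37° C overnight, growth read at 630 nm. Medium effects on S. aureus USA300 tested with up to 200 mM NaCl, 2 mM CaCl2, 5-10% human serum, mouse plasma, fluids or tissue homogenate supernatants.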

P. aeruginosa PAO1 = assay type: cell-based, Pseudomonas aeruginosa; settings: PAO1
How it was run: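 Broth microdilution in tryptic soy broth: log-phase cultures (OD600 ≈0.5) diluted to OD600 0.001, given two-fold peptide dilutions, incubated overnight at 37° C. Growth read at 630 nm.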

[1] = tested on: Klebsiella pneumoniae clinical strains; test: microbe, parasite or virus in culture; settings: Klebsiella pneumoniae
Description: The antibacterial activity of peptides was evaluated using a standard broth microdilution protocol with minor modifications (Mishra, et al. (2017) Acta Biomater., 49:316-328). In brief, logarithmic phase bacterial cultures (i.e., optical density at 600 nm≈0.5) were diluted to 0.001 OD and aliquoted 90 μL per well into a 96-well polystyrene microplate. Added 10 μL peptides per well with various concentrations, plates were incubated at 37° C., overnight. Post incubation the plates are read at 630 nm using a ChroMate® Microplate Reader (GMI). […] To study the influence of medium conditions on the antimicrobial activity of peptides against S. aureus USA300 at different pHs (6.8, 7.2, and 8.0), 150 mM sodium chloride (NaCl), 5-10% of human serum, mouse plasma, and peritoneal fluid were included into the assays.

In the case of `CC(C)C[C@H](NC(=O)[C@H](CC(C)C)NC(=O)[C@H](CCCCN)NC(=O)[C@H](CC(C)C)NC(=O)CNC(=O)[C@H](CC(C)C)NC(=O)[C@H](CO)NC(=O)[C@H](CC(C)C)NC(=O)[C@H](CC(C)C)NC(=O)[C@H](CO)NC(=O)CNC(=O)[C@H](CC(C)C)NC(=O)[C@@H](N)CC(C)C)C(N)=O` [DFT532, LLGSLLSLGLKLL] (H-LLGSLLSLGLKLL-NH2; N-terminus and C-terminus assumed), the “MIC EC (E. coli ATCC 25922)” value (E. coli ATCC 25922) is reported as greater than 25 µM, the HC50 at 1 h (Hemolytic assay) is reported as 13 µM and the “MIC SA (S. aureus USA300)” value (S. aureus USA300; USA300) is reported as 1.6 µM (≈ 2.14 µg/mL). The “MIC PA (P. aeruginosa PAO1)” value (P. aeruginosa PAO1) was greater than 25 µM.

For `CC(C)C[C@H](NC(=O)[C@H](CC(C)C)NC(=O)[C@H](CCCCN)NC(=O)[C@H](CC(C)C)NC(=O)CNC(=O)[C@H](CC(C)C)NC(=O)[C@H](CO)NC(=O)[C@H](CC(C)C)NC(=O)[C@H](CC(C)C)NC(=O)[C@H](CC(C)C)NC(=O)[C@H](CO)NC(=O)[C@H](CC(C)C)NC(=O)[C@@H](N)CCCCN)C(N)=O` [DFT560, KLSLLLSLGLKLL] (H-KLSLLLSLGLKLL-NH2; N-terminus and C-terminus assumed), the “MIC EC (E. coli ATCC 25922)” value (E. coli ATCC 25922) was greater than 25 µM, the HC50 at 1 h (Hemolytic assay) was 25 µM and the “MIC SA (S. aureus USA300)” value (S. aureus USA300; Table 4, quantitated based on weight) was 1.6 µM (≈ 2.26 µg/mL). For the same compound, the “MIC PA (P. aeruginosa PAO1)” value (P. aeruginosa PAO1) was greater than 25 µM.

In the case of `CC(C)C[C@H](NC(=O)[C@H](CC(C)C)NC(=O)[C@H](CCCCN)NC(=O)[C@H](CC(C)C)NC(=O)CNC(=O)[C@H](CC(C)C)NC(=O)[C@H](CCCCN)NC(=O)[C@H](CC(C)C)NC(=O)[C@H](CC(C)C)NC(=O)[C@H](CC(C)C)NC(=O)[C@H](CO)NC(=O)[C@H](CC(C)C)NC(=O)CN)C(N)=O` [DFT562, GLSLLLKLGLKLL] (H-GLSLLLKLGLKLL-NH2; N-terminus and C-terminus assumed), the “MIC EC (E. coli ATCC 25922)” value (E. coli ATCC 25922) is reported as greater than 25 µM, the HC50 at 1 h (Hemolytic assay) is reported as less than 25 µM and the “MIC PA (P. aeruginosa PAO1)” value (P. aeruginosa PAO1) is reported as greater than 25 µM.

With `CC(C)C[C@H](NC(=O)[C@H](CC(C)C)NC(=O)[C@H](CCCCN)NC(=O)[C@H](CC(C)C)NC(=O)[C@H](CCCCN)NC(=O)[C@H](CC(C)C)NC(=O)[C@H](CO)NC(=O)[C@H](CC(C)C)NC(=O)[C@H](CC(C)C)NC(=O)[C@H](CC(C)C)NC(=O)[C@H](CO)NC(=O)[C@H](CC(C)C)NC(=O)CN)C(N)=O` [DFT563, GLSLLLSLKLKLL] (H-GLSLLLSLKLKLL-NH2; N-terminus and C-terminus assumed) the “MIC EC (E. coli ATCC 25922)” value (E. coli ATCC 25922) was greater than 25 µM, the HC50 at 1 h (Hemolytic assay) was greater than 300 µM and the “MIC SA (S. aureus USA300)” value (S. aureus USA300; USA300) was 6.2 µM (≈ 8.74 µg/mL). For the same compound, the “MIC PA (P. aeruginosa PAO1)” value (P. aeruginosa PAO1) was greater than 25 µM.

In the case of `CC(C)C[C@H](NC(=O)[C@H](CC(C)C)NC(=O)[C@H](CCCCN)NC(=O)[C@H](CC(C)C)NC(=O)CNC(=O)[C@H](CC(C)C)NC(=O)[C@H](CCCCN)NC(=O)[C@H](CC(C)C)NC(=O)[C@H](CC(C)C)NC(=O)[C@H](CC(C)C)NC(=O)[C@H](CCCCN)NC(=O)[C@H](CC(C)C)NC(=O)CN)C(N)=O` [DFT564, GLKLLLKLGLKLL] (H-GLKLLLKLGLKLL-NH2; N-terminus and C-terminus assumed), the “MIC EC (E. coli ATCC 25922)” value (E. coli ATCC 25922) is reported as greater than 25 µM, the HC50 at 1 h (Hemolytic assay) is reported as less than 25 µM and the MIC (S. aureus USA300; USA300) is reported as 3.1 µM (≈ 4.4 µg/mL). For the same compound, the MIC (S. aureus USA300; USA300, pH 6.8) was 1.6 µM (≈ 2.27 µg/mL), the MIC (S. aureus USA300; USA300, pH 7.4) was 3.1 µM (≈ 4.4 µg/mL) and the MIC (S. aureus USA300; USA300, pH 8) was 1.6 µM (≈ 2.27 µg/mL). For the same compound, the “MIC PA (P. aeruginosa PAO1)” value (P. aeruginosa PAO1) was greater than 25 µM.

With `CC(C)C[C@H](NC(=O)[C@H](CC(C)C)NC(=O)[C@H](CCCCN)NC(=O)[C@H](CC(C)C)NC(=O)CNC(=O)[C@H](CC(C)C)NC(=O)[C@H](CCCCN)NC(=O)[C@H](CC(C)C)NC(=O)[C@H](CC(C)C)NC(=O)[C@H](CC(C)C)NC(=O)[C@H](CCCCN)NC(=O)[C@H](CC(C)C)NC(=O)[C@@H](N)CCCCN)C(N)=O` [DFT565, KLKLLLKLGLKLL] (H-KLKLLLKLGLKLL-NH2; N-terminus and C-terminus assumed) the “MIC EC (E. coli ATCC 25922)” value (E. coli ATCC 25922) was greater than 25 µM, the HC50 at 1 h (Hemolytic assay) was 50 µM and the MIC (S. aureus USA300; USA300) was 3.1 µM (≈ 4.63 µg/mL). For the same compound, the “MIC SA (S. aureus USA300)” value (S. aureus USA300; USA300) was 0.8 µM (≈ 1.19 µg/mL), the MIC (S. aureus USA300; USA300, pH 6.8) was 3.1 to 6.2 µM and the MIC (S. aureus USA300; USA300, pH 7.4) was 3.1 µM (≈ 4.63 µg/mL). The MIC (S. aureus USA300; USA300, pH 8) was 3.1 µM (≈ 4.63 µg/mL) and the “MIC PA (P. aeruginosa PAO1)” value (P. aeruginosa PAO1) was greater than 25 µM.

`CN(C)c1cc(NC(=O)CNC(C)(C)C)c(O)c2c1C[C@H]1C[C@H]3[C@H](N(C)C)C(O)=C(C(N)=O)C(=O)[C@@]3(O)C(O)=C1C2=O` [Tigecycline, reference compound] showed an MIC ([1]; strain KP-231-18) of 4 µM (≈ 2.34 µg/mL), an MIC ([1]; strain KP-232-18) of 8 µM (≈ 4.69 µg/mL) and an MIC ([1]; strain KP-245-18) of 4 µM (≈ 2.34 µg/mL). For the same compound, the MIC ([1]; strain KP-249-18) was 2 µM (≈ 1.17 µg/mL), the MIC ([1]; strain KP-253-18) was 2 µM (≈ 1.17 µg/mL) and the MIC ([1]; strain KP-256-18) was 4 µM (≈ 2.34 µg/mL). For the same compound, the MIC ([1]; strain KP-257-18) was 8 µM (≈ 4.69 µg/mL), the MIC ([1]; strain KP-262-18) was 4 µM (≈ 2.34 µg/mL) and the MIC ([1]; strain KP-270-18) was 4 µM (≈ 2.34 µg/mL). For the same compound, the MIC ([1]; strain KP-B42-15) was less than 2 µM, the MIC ([1]; strain KP-B53-15) was 2 µM (≈ 1.17 µg/mL) and the MIC ([1]; strain KP-B73-15) was 2 µM (≈ 1.17 µg/mL). For the same compound, the MIC ([1]; strain KP-B77-15) was less than 2 µM and the MIC ([1]; strain KP-B1725-18) was 2 µM (≈ 1.17 µg/mL).
